Data reported in patent US20100234381A1, “BIOMARKERS AND METHODS FOR DETERMINING SENSITIVITY TO VASCULAR ENDOTHELIAL GROWTH FACTOR RECEPTOR-2 MODULATORS” (Bristol-Myers Squibb Company, priority 2007, published 2010).

Tested on: GEO colon cancer cells
Experiment: VEGF-induced proliferation of GEO colon cancer cells (modified MTS assay)
Format: cell-based
Details: VEGF 2.5 ng/ml; 72 hours
Procedure: Cell Culture-GEO colon cancer cell line was routinely maintained in RPMI 1640 (Cellgro, Virginia) with 1% fetal bovine serum (Cellgro, Virginia) at 37° C. in 5% carbon dioxide/95% air in the presence of 100 units/ml penicillin, 100 μg/ml streptomycin (Cellgro, Virginia). Cell proliferation was determined by a modified MTS assay with […] 96® Aqueous One Solution Reagent (Promega, Madison, Wis.). […] After 180 minutes incubation, the optical densities (OD) of these samples were directly measured using SPECTRAMAX® plus (Molecular Device, California) and reference wavelength of 490 nm. […] Cell proliferation was determined by a modified MTS assay with […] […] After 180 minutes incubation, the optical densities (OD) of these samples were directly measured using SPECTRAMAX® plus (Molecular Device, California) and reference wavelength of 490 nm. […] […]

## [(1R),2S]-2-Aminopropionic acid 2-[4-(4-fluoro-2-methyl-1H-indol-5-yloxy)-5-methylpyrrolo[2,1-f][1,2,4]triazin-6-yloxy]-1-methylethyl ester [brivanib]
  inhibition of VEGF-induced cellular proliferation in GEO cells: did not potently inhibit
